Experiment [1] addresses T1, binding of TSP-1 protein to CD36, a TSP-1 receptor protein (Homo sapiens, UniProt P07996).
T1 construct: purchased novoprotein (TSP-1); R&D Systems (Fc-tagged CD36) CU45 (TSP-1); 1955-CD-050 (CD36-Fc)
In words: ELISA: blocking of CD36 binding to TSP-1 protein. To be noted: for inhibition at 100 µM: 3 h, read-out: Blocking rate (Mean, %); for inhibition at 100 µM / Blocking rate (Mean, %): 100 μM polypeptide, 0.25 μg/mL Fc-tagged CD36, blocking of CD36 binding to TSP-1. How it is done: ELISA assay was performed to detect the ability of the polypeptides to block the binding of TSP-1 protein to CD36, a TSP-1 receptor protein. TSP-1 protein (novoprotein, Catalog No. CU45) was diluted to 2 μg/mL using 100 mM carbonate buffer and added to sample wells (100 μL/well) of a 96-well ELISA plate (Thermo, Catalog No. 437111), and incubated overnight at 4° C.; after washing the plate twice using 1×PBST wash solution, 200 μL of 1.5% BSA (Sigma, Catalog No. B2064) was added to each well, and incubated at 37° C. for 2 h; after washing the plate 3 times using 1×PBST wash solution, the analytes were added (100 μL/well, 3 replicate wells; for the control group, 0.25 μg/mL of Fc-tagged CD36 protein (R&D Systems, Catalog No. 1955-CD-050); and for the polypeptide-treated groups, a mixture containing Fc-tagged CD36 protein and polypeptide at final concentrations of 0.25 μg/mL and 100 μM, respectively), and incubated at 37° C. for 3 h. After washing the plate 5 times using 1×PBST wash solution, a 1:500 dilution solution of FITC-labeled anti-Fc-tagged antibody (Beyotime, Catalog No. A0556) was added, and incubated for 1 h at 37° C.; after washing the plate 5 times using 1×PBST wash solution, a multifunctional ELISA instrument (TECAN, model: Infinite 200 Pro) was used to detect the intensity of FITC fluorescence signal in each sample well. The ability of the polypeptides to block CD36 binding to TSP-1 protein (Table 2-1) was assessed by calculating the ratio of the fluorescence signal from the polypeptide-treated groups to that of the control group, allowing for the determination of the blocking rate of the polypeptides in inhibiting CD36 binding to TSP-1 protein, i.e., (fluorescence signal of the control group-fluorescence signal of the polypeptide-treated group)/fluorescence signal of the control group×100%. Based on the blocking rate results obtained at the single concentration and on the polypeptide molecule properties, the preferred polypeptide molecules were assayed for concentration dependence (at 0 μM, 0.5 μM, 1 μM, 5 μM, 10 μM, and 100 μM), and IC50 values of the polypeptides for blocking CD36 binding to TSP-1 protein were determined to further assess the abilities of the preferred polypeptide molecules to block the binding of CD36 to TSP-1 (Table 2-2).
In general terms: ELISA stands for enzyme-linked immunosorbent assay.

The test system of experiment [2] is TSP-1-dependent TGF-β activation. In words: TSP-1-dependent TGF-β activation in PMA-differentiated THP-1 cells with 293-TGFβ Res reporter cells. Type of experiment: cell-based. To be noted: 100 μM polypeptide, 24 h; ratio to negative control group (1.00). The method, then: In this Example, the inhibitory effects of the polypeptides on TSP-1-dependent TGF-β activation were detected using a model based on a high TSP-1 expressing cell. In the assay, THP-1 cells (American Typical Culture Collection, ATCC, TIB-20) were induced by phorbol ester (Phorbol 12-myristate 13-acetate, PMA) (Sigma, Catalog No. P1585) and differentiated into macrophage-like cells with distinct macrophage expression profiles.
The experiment was performed as follows: THP-1 cells were inoculated in a 96-well plate, and treated with 300 nM PMA for differentiation and adherence to form macrophage-like cells. 100 μM polypeptide was added (For the negative control group, an equal volume of PBS (the solvent for the polypeptide) was added, while the positive control group received an equal concentration of the polypeptide shown in SEQ ID NO: 50.) The cells were treated for 24 hours, and then a 293 reporter cell strain, 293-TGFβ Res cell strain (novoprotein, Catalog No. XCC03-1), was added for detecting TGF-β activity, and co-cultivated for 24 hours. Bio-Lite Luciferase Assay lysate comprising fluorescent substrate (Vazyme, Catalog No. DD1201-01) was added, and the fluorescent intensity was detected using a multifunctional microplate reader (TECAN, model Infinite 200 Pro). The inhibitory effect of the polypeptide on TGF-β activation was assessed by calculating the ratio of the fluorescence signal from the polypeptide-treated groups to that of the negative control group.

Experiment [3] relates to active TGF-β. In words: Active TGF-β level in lung tissue, bleomycin (BLM) mouse lung fibrosis model. To be noted: single intratracheal dose 3 mg/kg on Day 7, lung 24 h later, BLM model group = 100.00. Type of experiment: in vivo. An excerpt: This Example was to evaluate the inhibitory effect of polypeptides on active TGF-β level during the progression of fibrotic disease. In this Example, a mouse lung fibrosis model induced by bleomycin (BLM) was used. The BLM animal model offers advantages, including a close mimicry of the pathological features of the primary disease, ease of use, and good reproducibility. It is the most representative model for studying the mechanisms of fibrosis and is recommended for evaluating drug efficacy.
In this Example, 6 to 8-week-old male C57/6J mice weighing 18-20 g were used as subjects for the study. The experimental animals were randomized into groups, 8 animals in each group, and the expressions of pro-fibrotic factors were detected at the endpoint of the experiment (Day 8) in this model. In this example, an aerosol intratracheal metered dosing applicator (Yuyan, model YAN30012) was utilized for intratracheal administration during the modeling and drug delivery processes. The dosing was performed as follows (An Official American Thoracic Society Workshop Report: Use of Animal Models for the Preclinical Assessment of Potential Therapies for Pulmonary Fibrosis, Am J Respir Cell Mol Biol Vol 56, Iss 5, pp 667-679, May 2017): The experimental animals were anesthetized with aerosolized isoflurane (RWD, lot no. 22041701) using a small animal anesthesia machine (RWD, model R500IE). Animals in the appropriate anesthetic state were positioned supine with heads facing up and bodies tilted on an operating platform (tilted at approximately) 60°, secured by their incisors. The practitioner gently lifted the tongue with tissue forceps in the right hand, pushing it outward and upward to open the animal's lower jaw. Holding the laryngoscope (Yuyan, model SR310-RW) in the left hand, the practitioner slid its anterior leaf-shaped blade along the midline of the tongue into the oral cavity until reaching the glottis, gently pressing the body and root of the tongue upward. The needle of the drug applicator was then inserted through the mouth into the glottis alongside the laryngoscope, and 50 μL of liquid was quickly injected. On the day of modeling (Day 1), the experimental animals were randomly assigned to groups and administered a 0.7 USP/kg dose of bleomycin solution (HanHui Pharmaceutical, Batch No. 20080511) via the tracheal route to induce the model. On Day 7, each peptide-treated group received a single intratracheal dose of 50 μL peptide drug (at a dosage of 3 mg/kg), while the model group was given an equal volume of solvent (saline, Kelong, Batch No. L221062501) as a control. Twenty-four hours after drug administration, the animals were dissected to collect lung tissue, which was ground in liquid nitrogen to extract total protein from the lung tissue. The active TGF-β content in the lung tissue of mice from each group was measured using the TGF-β ELISA kit (BOSTER, catalog number EK0515). The ratio of active TGF-β content between the peptide-treated group and the model group was calculated to evaluate the effect of the peptide on active TGF-β level.

For experiment [4], the system named is P-Smad2/3. In words: P-Smad2/3 content in lung tissue, BLM mouse fibrosis model. It counts as in vivo. To be noted: single intratracheal dose 3 mg/kg on Day 7, lung 24 h later, BLM model group = 100.00. An excerpt:
This example aimed to evaluate the inhibitory effect of polypeptides on the TGF-β downstream signaling pathway during fibrosis progression. TGF-β intracellular signaling relies on the phosphorylation events of Smad family proteins. The increase in Smad2/3 phosphorylation levels is an important indicator that signal transduction has occurred in the TGF-β signaling pathway.
In this example, 6- to 8-week-old male C57/6J mice weighing 18-20 g were used as subjects for the study. The experimental animals were randomized into groups, eight animals in each group. In this example, intratracheal administration was performed using an aerosol intratracheal metered dosing applicator during both the modeling and drug delivery processes, as described in Example 4. On the day of modeling (Day 1), the experimental animals were randomly assigned to groups and administered a 0.7 USP/kg dose of bleomycin solution (HanHui Pharmaceutical, Batch No. 20080511) via the tracheal route to induce the model. On Day 7, each peptide-treated group received a single intratracheal dose of peptide drug at a dosage of 3 mg/kg, while the BLM model group was given an equal volume of solvent (saline) as a control. Twenty-four hours after drug administration, the animals were dissected, and the lung tissues were collected and frozen in liquid nitrogen for future use. Total protein from the lung tissue was extracted after grinding the tissue in liquid nitrogen, and the total P-Smad2/3 content in the tissue was measured by using P-Smad2/3 ELISA kit (CST, Catalog No. 12001C). The ratio of the P-Smad2/3 content between the peptide-treated group and the model group was calculated to evaluate the effect of the peptide on TGFβ signaling.

Bridge positions count the residues as written; N and C are the ends. Ends that are not written are not given here. Peptide text beside a SMILES is read from it.

T1 sequence (P07996 19-1170): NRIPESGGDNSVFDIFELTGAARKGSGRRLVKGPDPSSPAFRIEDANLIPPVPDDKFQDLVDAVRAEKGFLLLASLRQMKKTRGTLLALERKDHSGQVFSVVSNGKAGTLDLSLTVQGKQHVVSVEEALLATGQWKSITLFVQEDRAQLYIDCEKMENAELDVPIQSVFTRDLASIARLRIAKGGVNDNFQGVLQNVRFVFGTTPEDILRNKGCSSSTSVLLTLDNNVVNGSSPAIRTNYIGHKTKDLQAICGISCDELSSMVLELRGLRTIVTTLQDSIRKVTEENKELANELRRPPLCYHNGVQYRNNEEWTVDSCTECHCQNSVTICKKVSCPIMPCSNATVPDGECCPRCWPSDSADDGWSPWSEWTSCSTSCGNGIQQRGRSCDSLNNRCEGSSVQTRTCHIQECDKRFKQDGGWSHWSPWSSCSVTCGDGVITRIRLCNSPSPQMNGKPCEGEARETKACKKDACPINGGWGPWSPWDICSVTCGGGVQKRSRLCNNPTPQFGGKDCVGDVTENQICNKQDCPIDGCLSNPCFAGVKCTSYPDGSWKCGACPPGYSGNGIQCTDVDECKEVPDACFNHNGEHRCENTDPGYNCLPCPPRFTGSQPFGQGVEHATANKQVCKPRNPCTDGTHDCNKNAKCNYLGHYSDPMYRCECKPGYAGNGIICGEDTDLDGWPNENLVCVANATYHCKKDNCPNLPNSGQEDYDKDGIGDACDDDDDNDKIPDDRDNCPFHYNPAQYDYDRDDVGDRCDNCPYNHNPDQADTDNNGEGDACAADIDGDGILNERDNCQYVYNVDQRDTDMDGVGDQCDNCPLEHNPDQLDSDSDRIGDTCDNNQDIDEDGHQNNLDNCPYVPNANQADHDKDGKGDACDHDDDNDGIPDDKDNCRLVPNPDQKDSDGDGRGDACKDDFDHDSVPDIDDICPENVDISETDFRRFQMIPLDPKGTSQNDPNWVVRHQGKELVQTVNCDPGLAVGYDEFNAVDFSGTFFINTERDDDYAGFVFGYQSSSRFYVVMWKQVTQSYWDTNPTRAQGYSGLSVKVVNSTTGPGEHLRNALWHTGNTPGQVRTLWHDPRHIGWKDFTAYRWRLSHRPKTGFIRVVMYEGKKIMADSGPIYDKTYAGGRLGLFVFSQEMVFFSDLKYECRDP

The term IC50 denotes the concentration that inhibits the measured activity by half. Low readings indicate higher potency, high ones lower potency. Consider “Ac-TQDAEDNTAS-NH2 [SEQ ID NO: 24, Ac-Thr-Gln-Asp-Ala-Glu-Asp-Asn-Thr-Ala-Ser-NH2]”, for which, in experiment [1], the inhibition at 100 µM was 32.6%. Besides, the IC50 in experiment [1] (concentrations 0-100 μM) stood at 10.6 µM. Also, the “Mean (relative fluorescence intensity)” value in experiment [2] stood at 0.57. Besides, in experiment [3], the “active TGF-β content in lung tissue, ratio to model group, Mean(%)” value came to 76.35%. Moreover, the “P-Smad2/3 content in lung tissue, ratio to model group, Mean(%)” value in experiment [4] came out at 89.89%.
In the case of “cyclo[Thr-Gln-Asp-Pro-Glu-Asp-Asn] (TQDPEDN; cyclic peptide; MISC_FEATURE - head-to-tail backbone cyclization) [SEQ ID NO: 41]”, the “Blocking rate (Mean, %)” value in experiment [1] was determined as 28.65%. Also, the “active TGF-β content in lung tissue, ratio to model group, Mean(%)” value in experiment [3] amounted to 74.12%. The “P-Smad2/3 content in lung tissue, ratio to model group, Mean(%)” value in experiment [4] is given as 81.44%.
The corresponding values for “Ac-Thr-Gln-Asp-Ala-Glu-Asp-Leu-NH2 (Ac-TQDAEDL-NH2) [SEQ ID NO: 12]” are 18.39%, 81.77% and 90.48%.
For “Thr-Gln-cyclo[Asp-Ala-Glu-Asp-Asn-Lys] (TQDAEDNK; lactam 3-8) [SEQ ID NO: 42]”, in that order: 25.68%, 80.59% and 85.16%.
Turning to “Ac-TQDPEDN-NH2 [SEQ ID NO: 14, Ac-Thr-Gln-Asp-Pro-Glu-Asp-Asn-NH2]”, the inhibition at 100 µM in experiment [1] is 27.9%. Further, in experiment [2], the “Mean (relative fluorescence intensity)” value was 0.70. Also, the “active TGF-β content in lung tissue, ratio to model group, Mean(%)” value in experiment [3] was determined as 92.49%. The “P-Smad2/3 content in lung tissue, ratio to model group, Mean(%)” value in experiment [4] is reported as 87.39%.
Take “Ac-Thr-Gln-Asp-Ala-Glu-Asp-Asn-Thr-Val-Ser-Phe-NH2 (Ac-TQDAEDNTVSF-NH2) [SEQ ID NO: 27]”: the “Blocking rate (Mean, %)” value in experiment [1] is given as 25.53%. Besides, the “active TGF-β content in lung tissue, ratio to model group, Mean(%)” value in experiment [3] came out at 89.89%. In experiment [4], the “P-Smad2/3 content in lung tissue, ratio to model group, Mean(%)” value turned out to be 88.69%.
For “Ac-Thr-Gln-Asp-Ala-Glu-Asp-Asn-Thr-Val-NH2 (Ac-TQDAEDNTV-NH2) [SEQ ID NO: 17]”, in that order: 29.16%, 71.36% and 74.12%.
On to “Ac-TQDPAEDN-NH2 [SEQ ID NO: 48, Ac-Thr-Gln-Asp-Pro-Ala-Glu-Asp-Asn-NH2]”, for which the inhibition at 100 µM in experiment [1] was found to be 29.7%. Also, in experiment [3], the “active TGF-β content in lung tissue, ratio to model group, Mean(%)” value amounted to 82.97%. In experiment [4], the “P-Smad2/3 content in lung tissue, ratio to model group, Mean(%)” value was 80.57%.
Take “Ac-TQDAEDNTVSFLQ-NH2 [SEQ ID NO: 36, Ac-Thr-Gln-Asp-Ala-Glu-Asp-Asn-Thr-Val-Ser-Phe-Leu-Gln-NH2]”: in experiment [1], the inhibition at 100 µM was determined as 23.1%. The “Mean (relative fluorescence intensity)” value in experiment [2] is on record as 0.83. The “active TGF-β content in lung tissue, ratio to model group, Mean(%)” value in experiment [3] was 77.42%. In addition, the “P-Smad2/3 content in lung tissue, ratio to model group, Mean(%)” value in experiment [4] turned out to be 79.00%.
Regarding `C[C@@H]1NC(=O)[C@H](CC(=O)O)NC(=O)[C@H](CCC(N)=O)NC(=O)[C@H]([C@@H](C)O)NC(=O)[C@H](CC(N)=O)NC(=O)[C@H](CC(=O)O)NC(=O)[C@H](CCC(=O)O)NC1=O` [SEQ ID NO: 45, cyclo[Gln-Asp-Ala-Glu-Asp-Asn-Thr]] (cyclo(AEDNTQD)), the “Mean (relative fluorescence intensity)” value in experiment [2] was determined as 0.52. The “active TGF-β content in lung tissue, ratio to model group, Mean(%)” value in experiment [3] (3 mg/kg) came to 81.10%. Besides, in experiment [4] (3 mg/kg), the “P-Smad2/3 content in lung tissue, ratio to model group, Mean(%)” value amounted to 82.42%.
In the case of “Ac-Thr-Asn-Asp-Ala-Glu-Asp-Asn-NH2 (Ac-TNDAEDN-NH2) [SEQ ID NO: 08]”, the “Blocking rate (Mean, %)” value in experiment [1] was determined as 16.70%. In experiment [3], the “active TGF-β content in lung tissue, ratio to model group, Mean(%)” value stood at 80.31%. Moreover, in experiment [4], the “P-Smad2/3 content in lung tissue, ratio to model group, Mean(%)” value was 83.02%.

Source of the values: patent US20250388623A1, “PEPTIDE INHIBITOR AND USE THEREOF” (CHENGDU BRILLIANT INSPIRATION BIOTHERAPEUTICS CO., LTD, priority 2022, published 2025).
